# Source: patent publication US9375000B2, “Pesticidal arylpyrrolidines” (Bayer Intellectual Property GmbH, priority 2011, dated 2016)
# Where “and” joins values, the source holds several entries; their conditions need not be identical. Equal values may be shown once.
# Experiments:
# Assay type in all cases: in vivo
# [1] = system: Tobacco Cutworm (Spodoptera litura) Larvae; experiment: Tobacco cutworm (Spodoptera litura) larvae, sweet potato leaf dip test; settings: dead larvae after 7 days
# Description: (§1) Unless not mentioned otherwise, the test solutions were prepared as follows:
# (§2) Solvent: 3 parts by weight Dimethylformamide
# (§3) Emulsifier: 1 part by weight Polyoxyethylene alkyl phenyl ether
# (§4) In order to make an appropriate formulation of an active compound, 1 part by weight of the active compound is mixed with the above mentioned amount of solvent and emulsifier and the mixture is diluted with water to a prescribed concentration. Ammonium salt or ammonium salt and penetration enhancer in a dosage of 1000 ppm are added to the desired concentration if necessary.
# Leaves of sweet potato were immersed in the test solution at the appropriate concentration, and the leaves were dried in air. The leaves were then placed in a petri dish having a diameter of 9 cm, and ten Spodoptera litura at third instar larvae were released therein. The petri dishes were placed in a temperature-controlled chamber at 25° C. After 2 days and 4 days more sweet potato leaves were added. After 7 days, the number of dead larvae was counted to calculate the insecticidal activity. An insecticidal activity of 100% means that all larvae were killed, whereas an insecticidal activity of 0% means that no larva was killed. In the current test, the results of two petri dishes for each treatment were averaged.
# [2] = system: Two-Spotted Spider Mite (Tetranychus urticae); experiment: Two-spotted spider mite (Tetranychus urticae) spray test on kidney bean; settings: after 7 days
# In short: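 Kidney bean plants at the two-leaf stage carried 50-100 adult mites and were sprayed one day later with compound in DMF/polyoxyethylene alkyl phenyl ether diluted in water. Ammonium salt and penetration enhancer at 1000 ppm were added if needed. Acaricidal activity (% mites killed) was scored after 7 days in a greenhouse.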
# [3] = system: Cucurbit Leaf Beetle (Aulacophora femoralis); experiment: Cucurbit leaf beetle (Aulacophora femoralis) cucumber leaf dip test; settings: after 7 days
# In short: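 Cucumber leaves dipped in compound formulated with DMF and polyoxyethylene alkyl phenyl ether, diluted in water, with ammonium salt or ammonium salt plus penetration enhancer at 1000 ppm added if necessary; dried leaves placed on sterilized soil with five second-instar larvae. Kept at 25° C; larval mortality counted after 7 days.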
# [4] = system: Larvae of Spodoptera litura; experiment: Larvae of Spodoptera litura, method using artificial feeds; settings: artificial feed, after 7 days
# In short: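 Compound formulated in dimethylformamide with polyoxyethylene alkyl phenyl ether emulsifier, water-diluted and poured onto artificial diet. Five 3rd-instar Spodoptera litura larvae per cup, held at 25° C and 50-60% humidity. Mortality after 7 days expressed as pesticidal ratio.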
# [5] = system: Thrips palmi; experiment: Thrips palmi spray test (THRIPL); settings: after 6 days
# In short: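 Cucumber seedlings sprayed with compound formulated in DMF/polyoxyethylene alkyl phenyl ether and diluted in water, ammonium salt ± penetration enhancer at 1000 ppm added if needed. About 100 T. palmi eggs attached, plants held caged at 100% humidity, 23 °C. Percent activity scored from feeding damage after 6 days, 100 = no damage, 0 = as untreated.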
# [6] = system: Ctenocephalides felis; experiment: Test against Ctenocephalides felis (CTECFE), blood feeding; settings: application rate 100 ppm in cattle blood; after 2 days
# Description: (§5) Solvent: dimethyl sulfoxide
# To produce a suitable preparation of active compound, 10 mg of active compound are dissolved in 0.5 ml solvent, and the concentrate is diluted with cattle blood to the desired concentration. Approximately 20 adult unfed (Ctenocepahlides felis) are placed in flea chambers. The blood chamber, sealed with parafilm on the bottom, are filled with cattle blood supplied with compound solution and placed on top of the flea chamber, so that the fleas are able to suck the blood. The blood chamber is heated to 37° C. whereas the flea chamber is kept at room temperature.
# After 2 days mortality in % is determined. 100% means that all the fleas have been killed; 0% means that none of the fleas have been killed.
# [7] = system: adult engorged female Boophilus microplus ticks; experiment: Test against Boophilus microplus (dip); settings: dip, after 7 days
# Description: as §5
# To produce a suitable preparation of active compound, 10 mg of active compound are dissolved in 0.5 ml solvent, and the concentrate is diluted with water to the desired concentration. Eight to ten adult engorged female Boophilus microplus ticks are placed in perforated plastic beakers and immersed in aqueous compound solution for one minute. Ticks are transferred to a filter paper in a plastic tray. Egg deposition of fertile eggs is monitored after. After 7 days mortality in % is determined. 100% means that all the ticks have been killed; 0% means that none of the ticks have been killed.
# [8] = system: green peach aphids (Myzus persicae); experiment: Myzus persicae spray test (MYZUPE); settings: after 6 days
# Description: as §1, §2, §3, §4
# 1 day before treatment, green peach aphids (Myzus persicae) are inoculated onto the testing plants, about 50 heads per leaf, 100 for 1 pot. A paper label is placed on each pot. Solutions are sprayed directly onto both insects and plants. After drying, the pots are placed in the greenhouse at 20° C.-25° C. After 6 days mortality in % is determined. An insecticidal activity of 100% means that all aphids were killed, whereas an insecticidal activity of 0% means that no aphid was killed.
# [9] = system: Musca domestica; experiment: Test against Musca domestica; settings: application rate 100 ppm; after 2 days
# Description: as §5
# To produce a suitable preparation of active compound, 10 mg of active compound are dissolved in 0.5 ml solvent, and the concentrate is diluted with water to the desired concentration. Prior to the assay, a piece of kitchen sponge is soaked with a mixture of sugar and compound solution and placed into a container. 10 adults (Musca domestica) are placed into the container and closed with a perforated lid. After 2 days mortality in % is determined. 100% means that all the flies have been killed; 0% means that none of the flies have been killed.
# [10] = active compound concentration 4 ppm
# [11] = active compound concentration 20 ppm
# [12] = active compound concentration 100 ppm
Compound,"insecticidal activity [1, 10]","acaricidal activity [2, 11]","insecticidal activity [3, 11]","insecticidal activity (pesticidal ratio) [4, 10]","acaricidal activity [2, 10]","insecticidal activity [3, 10]","insecticidal activity (pesticidal ratio) [4, 11]","insecticidal activity (by feeding damage degree) [5, 11]",further results
CCC(=O)NCc1cnc(N2CCC(c3cc(Cl)c(Cl)c(Cl)c3)(C(F)(F)F)C2O)cc1C(F)(F)F (stereo not shown) [A5-13],100%,100%,100%,100%,–,–,–,–,"acaricidal activity [2, 12]: 98%; insecticidal activity (by feeding damage degree) [5, 12]: 100% and 90%"
O=C(CC(F)(F)F)NCc1cnc(N2CCC(c3cc(Cl)c(Cl)c(Cl)c3)(C(F)(F)F)C2O)cc1C(F)(F)F (stereo not shown) [A5-18],100%,100%,100%,–,–,–,–,–,"insecticidal activity (by feeding damage degree) [5, 12]: 100%; activity (mortality) [6]: 90%"
CS(=O)(=O)CC(=O)NCc1ccc(N2CCC(c3cc(C(F)(F)F)cc(C(F)(F)F)c3)(C(F)(F)F)C2O)nc1Br (mixture of isomers) [A3-165],–,–,100%,100%,90%,100%,100%,–,activity (mortality) ([7]; application rate 100 ppm): 90%
O=C(NCc1ccc(N2CCC(c3cc(Cl)c(F)c(Cl)c3F)(C(F)(F)F)C2O)nc1C(F)(F)F)C1CC1 (mixture of isomers) [A3-214],–,100%,100%,100%,100%,100%,100%,–,"insecticidal activity (mortality) [8, 11]: 100%; insecticidal activity (by feeding damage degree) [5, 10]: 90%"
O=C(NCc1ccc(N2CC(c3cc(C(F)(F)F)cc(C(F)(F)F)c3)(C(F)(F)F)CC2=O)nc1C(F)(F)F)C1CC1 (stereo not shown) [C3-27],–,–,–,–,–,–,100%,–,"insecticidal activity [1, 11]: 100%; activity (mortality) [9]: 90%"
CCCC(=O)NCc1ccc(N2CCC(c3cc(Cl)c(Cl)c(Cl)c3)(C(F)(F)F)C2O)nc1C(F)(F)F (stereo not shown) [A3-14],–,100%,100%,100%,100%,100%,100%,–,activity (mortality) [6]: 95%
O=C(NCc1ccc(N2CCC(c3cc(Cl)c(Cl)c(Cl)c3)(C(F)(F)F)C2O)nc1Cl)C1CC1 (stereo not shown) [A3-104],100%,–,100%,–,100%,–,–,98%,"insecticidal activity (mortality) [8, 11]: 100%"
O=C(NCc1ccc(N2CCC(c3cc(Cl)cc(Cl)c3)(C(F)(F)F)C2O)cc1Br)C1CC1 (mixture of isomers) [A1-110],100%,–,100%,–,100%,–,–,98%,activity (mortality) ([7]; application rate 100 ppm): 90%
CCC(=O)NCc1ccc(N2CCC(c3cc(Cl)c(Cl)c(Cl)c3)(C(F)(F)F)C2O)nc1Br (stereo not shown) [A3-112],–,100%,100%,–,–,–,100%,–,activity (mortality) [9]: 90%
O=C(NCc1ccc(N2CCC(c3cc(Cl)c(Cl)c(Cl)c3)(C(F)(F)F)C2O)cc1I)C1CC1 (mixture of isomers) [A1-176],–,100%,100%,100%,100%,–,100%,90%,activity (mortality) [9]: 80%
O=C(NCc1ccc(N2CCC(c3cc(F)cc(Cl)c3)(C(F)(F)F)C2O)nc1C(F)(F)F)C1CC1 (mixture of isomers) [A3-170],100%,100%,100%,–,–,–,–,–,activity (mortality) [9]: 90%
CC(=O)NCc1ccc(N2CCC(c3cc(Cl)c(F)c(Cl)c3F)(C(F)(F)F)C2O)cc1C(F)(F)F (stereo not shown) [A1-282],100%,–,100%,–,100%,–,–,–,activity (mortality) ([7]; application rate 100 ppm): 95%
O=C(CC(F)(F)F)NCc1ccc(N2CCC(c3cc(Cl)c(Cl)c(Cl)c3)(C(F)(F)F)C2O)cc1Cl (stereo not shown) [A1-18],–,–,–,100%,100%,100%,–,–,"insecticidal activity (mortality) [8, 12]: 100%; insecticidal activity (by feeding damage degree) [5, 12]: 90%"
O=C(NCc1ccc(N2CCC(c3cc(Br)cc(Br)c3)(C(F)(F)F)C2O)cc1C(F)(F)F)C1CC1 (stereo not shown) [A1-253],–,100%,100%,100%,100%,100%,100%,90%,activity (mortality) [9]: 90%
O=C(NCc1cc(F)c(N2CCC(c3cc(C(F)(F)F)cc(C(F)(F)F)c3)(C(F)(F)F)C2O)nc1Cl)C1CC1 (stereo not shown) [A3-381],–,–,100%,–,–,100%,100%,–,"insecticidal activity (mortality) [8, 12]: 98%; insecticidal activity (by feeding damage degree) [5, 12]: 98%; activity (mortality) ([7]; application rate 100 ppm): 80%"
C[S+]([O-])CC(=O)NCc1ccc(N2CCC(c3cc(C(F)(F)F)cc(C(F)(F)F)c3)(C(F)(F)F)C2O)cc1Cl (stereo not shown) [A1-32],–,100%,100%,–,–,–,100%,–,activity (mortality) ([7]; application rate 20 ppm): 95%
CCC(=O)NCc1ccc(N2CCC(c3cc(C(F)(F)F)cc(C(F)(F)F)c3)(C(F)(F)F)C2O)cc1C(F)(F)F (mixture of isomers) [A1-57],–,–,–,100%,100%,100%,–,100%,activity (mortality) ([7]; application rate 100 ppm): 90%
CCC(=O)NCc1cnc(N2CCC(c3cc(Cl)c(Cl)c(Cl)c3)(C(F)(F)F)C2O)nc1C(F)(F)F (stereo not shown) [A4-13],–,100%,–,–,–,–,100%,98%,"insecticidal activity (mortality) [8, 12]: 90%; insecticidal activity (by feeding damage degree) [5, 12]: 98%"
CCC(=O)NCc1cnc(N2CCC(c3cc(Cl)c(F)c(Cl)c3F)(C(F)(F)F)C2O)nc1C(F)(F)F (stereo not shown) [A4-112],100%,–,100%,–,100%,–,–,98%,–
CCC(=O)NCc1cnc(N2CCC(c3cc(Cl)c(F)c(Cl)c3)(C(F)(F)F)C2O)nc1C(F)(F)F (stereo not shown) [A4-101],100%,–,100%,–,100%,–,–,98%,"insecticidal activity (mortality) [8, 11]: 100%"
